Reference: US10246448B2, “4-hydroxy-2-phenyl-1,3-thiazol-5-yl methanone derivatives as TRPM8 antagonists” (DOMPÉ FARMACEUTICI S.P.A., priority 2015, dated 2019)

Legend:
[1] = Metabolic stability in rat microsomes, Phase I assay; type: in vitro ADME; conditions: pH 7.4; rat liver microsomes 0.5 mg/ml, compound 1 μM, NADP cofactors mixture, 37° C.; read-out: Metabolic Stability (t1/2, min) Phase1
Description: Compounds 1, 2, 8 and 9 in duplicate were dissolved in DMSO and pre-incubated, at the final concentration of 1 μM, for 10 min at 37° C. in potassium phosphate buffer 50 mM pH 7.4, 3 mM MgCl2, with rat liver microsomes (Xenotech) at the final concentration of 0.5 mg/ml.
After the pre-incubation period, reactions were started by adding the cofactors mixture (NADP, Glc6P, Glc6P-DH in 2% Sodium bicarbonte); samples (50 μl) were taken at time 0, 10, 20, 30 and 60 min added to 150 μl of acetonitrile with Verapamil 0.02 μM as Internal Standard (IS) to stop the reaction. After centrifugation the supernatants were analysed by LC-MS/MS.
A control sample without cofactors was added in order to check the stability of test compounds in the matrix after 60 min. 7-Ethoxycoumarin and propranolol were added as reference standards.

[2] = Metabolic stability in rat microsomes, Phase II assay; type: in vitro ADME; conditions: pH 7.4; rat liver microsomes 0.5 mg/mL, Alamethicin activated, UDPGA, compound 1 μM, 37° C.; read-out: Metabolic Stability (t1/2, min) Phase2
Description: Rat liver microsomes (0.5 mg/mL final conc.) were incubated in ice for 15 min in 50 mM potassium phosphate buffer pH 7.4, 3 mM MgCl2 and activated with Alamethicin 50 μg/mg microsomal protein. Samples were transferred at 37° C. and compounds 1, 2, 8 and 9, dissolved in DMSO, were added in duplicate at the final concentration of 1 μM. After 5 min, reaction is started by adding 25 μl of UDPGA (16.15 mg/ml in 0.2% Sodium Bicarbonate). Samples were taken at time 0, 10, 20, 30 and 60 min added to 150 μl of acetonitrile with Verapamil 0.02 uM as Internal Standard (IS) to stop the reaction. After centrifugation the supernatants were analysed by LC-MS/MS. 7-Hydroxycoumarin was added as reference standard.

human TRPM8 [3] = target: T1, human TRPM8 (Homo sapiens, UniProt Q7Z2W7); test: In vitro TRPM8 assay: intracellular calcium levels, Ca2+ sensitive fluorescent dye (FLIPR), agonist Icilin or Cooling Agent 10; type: cell-based; design: expressed in transfected cells; conditions: HEK-293 cells stably expressing human TRPM8
Description: The TRPM8 antagonistic activity of all 26 compounds was determined by measuring changes in intracellular calcium levels using a Ca^+2 sensitive fluorescent dye. The experiments were performed using HEK-293 cells stably expressing the human TRPM8. Cells were seeded 10000 cells/well in 384 plates coated by Poly-D-Lysine MATRIX black/clear bottom (Thermo Scientific, Waltham, Mass. USA) in complete medium and grown overnight at 37° C., 5% CO2. 24 h after seeding, cell culture media was removed, cells were washed with Tyrode's assay buffer and then loaded with the fluorescent Ca^+2 indicator Fluo-4 NW dye (Molecular Probes, Life Technologies, Paisley, UK) supplemented with water-soluble Probenecid (Molecular Probes). Dye loaded cell plates were incubated for 1 h at room temperature. The compounds or vehicle were added and the kinetic response was monitored by a fluorimetric imaging plate ([…]; Molecular Devices, Sunnyvale, Calif., USA) over a period of five minutes (300 seconds). A second injection 5 minutes later of the reference agonist Cooling Agent 10 or Icilin at EC80 concentration was performed. The signal of the emitted fluorescence was recorded during additional three minutes. Data were analyzed by Spotfire DecisionSite version 9.1.1. The bioactivity exerted by the compounds or vehicle was expressed as a percent inhibition and IC50 values were then calculated.

human TRPM8 [4] = target: T1, human TRPM8; test: In vitro cold stimulation assay
Description: The TRPM8 antagonisticic activity of all 26 compounds was determined in an in vitro cold stimulation assay.
3-4 days after seeding (˜80% confluent cells), the medium was removed and cells were loaded by a solution of Screen Quest™ Fluo-8 NW dye (ABS Bioquest, Sunnyvale, Calif., USA) in the dark. Dye-loaded cell flasks were incubated for 45 minutes at room temperature in the dark and the Fluo-8 NW solution was then removed and cells were seeded in the 96 Assay Plates (MicroAmp™ Optical 96-Well Reaction Plates; Applied Biosystems, Life technologies) at 100,000 cells/'well (20 μl/well). […] All data point determinations were performed in duplicate before a mean value was calculated, including error bars representing the standard error of the mean.

[5] = agonist Cooling Agent 10 at EC80, read-out: Ca2+ (IC50 μM) Cool 10
[6] = agonist Icilin at EC80, read-out: Ca2+ (IC50 μM) Icilin

T1 sequence (Q7Z2W7 whole entry): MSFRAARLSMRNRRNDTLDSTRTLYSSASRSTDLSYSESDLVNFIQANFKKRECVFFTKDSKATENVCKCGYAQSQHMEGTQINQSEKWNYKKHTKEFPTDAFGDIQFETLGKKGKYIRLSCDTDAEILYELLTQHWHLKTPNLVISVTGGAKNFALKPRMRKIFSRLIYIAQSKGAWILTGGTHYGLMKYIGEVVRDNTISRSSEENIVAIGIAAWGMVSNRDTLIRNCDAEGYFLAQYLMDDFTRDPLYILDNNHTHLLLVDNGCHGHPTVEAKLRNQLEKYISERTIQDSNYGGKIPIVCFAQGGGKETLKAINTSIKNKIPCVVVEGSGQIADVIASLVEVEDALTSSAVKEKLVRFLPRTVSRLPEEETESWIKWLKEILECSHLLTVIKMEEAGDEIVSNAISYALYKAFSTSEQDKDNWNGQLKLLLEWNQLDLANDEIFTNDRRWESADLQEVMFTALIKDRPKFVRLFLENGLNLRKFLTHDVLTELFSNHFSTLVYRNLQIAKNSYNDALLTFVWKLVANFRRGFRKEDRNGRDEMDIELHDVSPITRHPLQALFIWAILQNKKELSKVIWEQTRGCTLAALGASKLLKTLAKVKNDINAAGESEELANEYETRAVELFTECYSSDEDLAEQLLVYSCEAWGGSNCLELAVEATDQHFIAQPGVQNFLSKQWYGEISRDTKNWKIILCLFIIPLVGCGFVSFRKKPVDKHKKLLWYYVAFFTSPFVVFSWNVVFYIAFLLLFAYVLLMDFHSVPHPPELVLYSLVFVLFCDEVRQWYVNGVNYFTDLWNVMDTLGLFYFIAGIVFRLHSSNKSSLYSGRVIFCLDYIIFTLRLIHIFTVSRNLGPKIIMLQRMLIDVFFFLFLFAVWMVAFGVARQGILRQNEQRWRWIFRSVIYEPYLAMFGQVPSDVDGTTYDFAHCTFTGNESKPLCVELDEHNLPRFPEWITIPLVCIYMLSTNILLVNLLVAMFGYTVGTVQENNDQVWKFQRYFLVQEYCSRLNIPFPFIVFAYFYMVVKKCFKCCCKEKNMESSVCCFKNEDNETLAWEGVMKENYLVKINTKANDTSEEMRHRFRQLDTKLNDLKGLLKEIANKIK

Row | half-life at 1 μM [1] | half-life at 1 μM [2] | IC50 (human TRPM8 [3]; [5]) | IC50 (human TRPM8 [3]; [6]) | IC50 (human TRPM8 [4]) | Compound
1 | 75 min | 63 min | 0.121 µM | 0.143 µM | 46 nM | O=C(c1sc(-c2cccc(F)c2)nc1O)N1CCCCCO1 [Example 27, [2-(3-fluorophenyl)-4-hydroxy-1,3-thiazol-5-yl](1,2-oxazepan-2-yl)methanone]
2 | 91 min | 78 min | 0.091 µM | 0.111 µM | 31 nM | CC1CCN(C(=O)c2sc(-c3cccc(F)c3)nc2O)O1 (stereo not drawn) [Example 29, [2-(3-fluorophenyl)-4-hydroxy-1,3-thiazol-5-yl](5-methyl-1,2-oxazolidin-2-yl) methanone]
3 | 82 min | 85 min | 0.084 µM | 0.087 µM | 69 nM | O=C(c1sc(-c2cccc(F)c2)nc1O)N1CC2CCCC2O1 (stereo not drawn) [Example 30, [2-(3-fluorophenyl)-4-hydroxy-1,3-thiazol-5-yl](hexahydro-2H-cyclopenta[d][1,2]oxazol-2-yl)methanone]
4 | 85 min | 67 min | 0.94 µM | 0.082 µM | 50 nM | O=C(c1sc(-c2cccc(F)c2)nc1O)n1ccnn1 [Example 31, [2-(3-fluorophenyl)-4-hydroxy-1,3-thiazol-5-yl](1H-1,2,3-triazol-1-yl)methanone]
5 | 81 min | 69 min | 0.098 µM | 0.101 µM | 63 nM | Cn1nnnc1C(=O)c1sc(-c2cccc(F)c2)nc1O [Example 32, [2-(3-fluorophenyl)-4-hydroxy-1,3-thiazol-5-yl](1-methyl-1H-tetrazol-5-yl)methanone]

Second part, the compound before the results:

Row | Compound | half-life at 1 μM [1] | half-life at 1 μM [2] | IC50 (human TRPM8 [3]; [5]) | IC50 (human TRPM8 [3]; [6]) | IC50 (human TRPM8 [4])
6 | O=C(c1ccncc1)c1sc(-c2cccc(F)c2)nc1O [Example 24, [2-(3-fluorophenyl)-4-hydroxy-1,3-thiazol-5-yl](pyridin-4-yl)methanone] | 40 min | 48 min | 0.601 µM | 0.624 µM | 525 nM
7 | O=C(c1sc(-c2cccc(F)c2)nc1O)n1ccnc1 [Example 25, [2-(3-fluorophenyl)-4-hydroxy-1,3-thiazol-5-yl](1H-imidazol-1-yl)methanone] | 45 min | 40 min | 1.25 µM | 1.25 µM | 972 nM
8 | O=C(c1sc(-c2cccc(F)c2)nc1O)n1cccn1 [Example 26, [2-(3-fluorophenyl)-4-hydroxy-1,3-thiazol-5-yl](1H-pyrazol-1-yl)methanone] | 89 min | 86 min | 1.65 µM | 1.32 µM | 1320 nM
9 | O=C(c1sc(-c2cccc(F)c2)nc1O)N1CC2(CC2)CO1 [Example 28, [2-(3-fluorophenyl)-4-hydroxy-1,3-thiazol-5-yl](5-oxa-6-azaspiro[2.4]heptan-6-yl) methanone] | 73 min | 61 min | 0.086 µM | 0.143 µM | 54 nM
